We go through 7 compounds from patent publication US5356796A, “Repressor protein and operon for regulating expression of polypeptides and its use in the preparation of 2,2-dialkyglycine decarboxylase of Pseudomonas cepacia” (priority 1992, dated 1994).

The structures appear in SMILES notation.

Assay [1] has as its system dialkylglycine decarboxylase gene expression in E. coli DH5α/pKBD6. As to the kind of experiment: Time course of dialkylglycine decarboxylase induction in E. coli DH5α/pKBD6. It is filed as cell-based, Escherichia coli. Conditions: DH5α/pKBD6 in minimal medium with ammonium chloride; amino acid added during growth (10 mM in FIG. 7 legend, 8.0 mM in method). Here is the method:
FIG. 7 depicts induction of dialkylglycine decarboxylase activity in E. coli DH5a/pKBD6 cultures by various amino acids. One-liter cultures containing minimal salts, glucose, NH4 Cl, and tetracycline (12 μg/ml) were supplemented at the indicated time with amino acid (final concentration, 10 mM). Absorbance of the culture was measured at 600 nm in a 1-cm cell ( -- ). Each activity assay contained 60 absorbance units of resuspended bacteria (.largecircle.--.largecircle.)
Radiochemical Dialkylglycine Decarboxylase Assay--Dialkylglycine decarboxylase activity was measured under zero-order conditions essentially as described (Dinwoodie and Boeker, 1979). Assay reactions contained 500 μL of protein solution (100 mM MOPS^1, (MOPS=3-(N-morphalino)propanesulfonic acid), 25 mM KCl, 0.05 mM PLP, (PLP=pyridoxal 5'-phosphate), pH 7.00 or 30 mM Tris, 40 mM KCl, 0.05 mM PLP pH 7.90) plus 0.045 mL of substrate solution (245 mM 2-methylalanine, 62 mM sodium pyruvate, containing 0.25 μCi [1-^14 C]2-methylalanine)- Assays were carried out in stoppered 12×220 mm test tubes containing a folded 10×25 mm piece of filter paper soaked with 24 μL of 2:1 ethanolamine/2-ethoxyethanol- After incubation at room temperature (25° C.) for one or two hours, the reaction was quenched with 200 μL of 50% trichloroacetic acid, ^14 CO2 was collected for one hour, and the filter paper was counted in 10 mL of Beckman Ready Safe cocktail. One unit is defined as the amount of activity required to produce 1 nanomole of CO2 per min. at 25° C.
Time Course of Dialkylglycine Decarboxylase Induction--An 800-mL portion of M9 containing 12 μg/mL tetracycline in a 6-L conical flask was inoculated with DH5α/pKBD6. The flask was shaken at 37° C. and the absorbance at 600 nm was measured periodically. At various times during cell growth aliquots containing 60. AU's (absorbance units) of cells were removed, stored on ice, concentrated by centrifugation, and resuspended in 1.0 mL MOPS buffer. Aliquots of 0.50 mL were assayed for dialkylglycine activity. After the first two samples were taken, an amino acid (2-methylalanine, R,S-isovaline, D-alanine, or L-alanine) was added to a final concentration of 8.0 mM and sampling was continued.

Assay [2] deals with T1, Pseudomonas cepacia 2,2-dialkylglycine decarboxylase repressor (dgdR gene product, SEQ ID NO: 11) bound to operators O1 and O2 (Burkholderia cepacia, UniProt P16931).
T1 construct: crude extract or ammonium sulfate fraction; gel shift on dgd operator DNA
T1 sequence (P16931 whole entry): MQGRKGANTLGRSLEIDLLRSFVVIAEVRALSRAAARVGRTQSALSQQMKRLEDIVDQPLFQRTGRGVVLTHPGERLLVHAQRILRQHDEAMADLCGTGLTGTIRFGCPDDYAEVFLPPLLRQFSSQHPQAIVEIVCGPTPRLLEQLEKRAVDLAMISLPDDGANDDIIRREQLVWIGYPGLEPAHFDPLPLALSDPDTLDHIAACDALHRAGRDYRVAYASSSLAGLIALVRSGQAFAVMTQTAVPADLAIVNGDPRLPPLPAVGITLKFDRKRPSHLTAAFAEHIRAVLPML
The experiment in a line: Gel mobility shift assay of dgdR repressor with the 788 bp DNA fragment in presence of 2-methylalanine. It is filed as binding. The settings on record: 20 mM 2-methylalanine in gel; 788 bp fragment containing O1 and O2. Here is the method: Repressor Preparation--A 100 ml portion of LB medium containing about 50 μg/ml carbenicillin was inoculated with about a 2 ml overnight culture of JM109/pJKDGDR1 and was grown at about 37° C. to an OD600 of 1. IPTG was added to a final concentration of about 1 mM, the culture was shaken another 4 h, and then was pelleted by centrifugation at 4000 xg at about 4° C. The pellet was resuspended in 5 ml buffer (50 mM TrisHCl pH 7.9, 50 mM KCl), sonicated 3×0.5 min at about 0° C., and centrifuged for about 15 min at about 12,000 xg at about 4° C. Aliquots of the supernatant were used for gel shift assays and SDS-PAGE. Other aliquots were partially purified by selective precipitation with 1.0 M ammonium sulfate. Protein concentration was determined by the dye binding method of Read and Northcote (1981). […]
Gel Shift Assays--A 10 μl assay mixture contained about 50 ng of DNA fragment, 1.0 μg of repressor extract (or 1.0 μg of extract from a JM109 strain containing a dgdA-pBTac1 recombinant), 10 mM TrisHCl pH 7.6, 5 mM sodium acetate, 2.5% glycerol, and 0.005% bovine serum albumin. The mixture was incubated 5 to 20 min at room temperature, about 3 μl of 50% sucrose/0.1% bromophenol blue was added, and the entire sample was analyzed by electrophoresis in a 1 mm 4% polyacrylamide gel containing about […] Tris, 380 mM glycine, 4 mM EDTA, and 2.5% glycerol. […]

Assay [3] deals with Pseudomonas cepacia 2,2-dialkylglycine decarboxylase (Burkholderia cepacia, UniProt P16932). The settings on record: isovaline isomer as substrate of the decarboxylase; read-out: Michaelis constant; cited from earlier work.
Sequence of Pseudomonas cepacia 2,2-dialkylglycine decarboxylase (P16932 2-433): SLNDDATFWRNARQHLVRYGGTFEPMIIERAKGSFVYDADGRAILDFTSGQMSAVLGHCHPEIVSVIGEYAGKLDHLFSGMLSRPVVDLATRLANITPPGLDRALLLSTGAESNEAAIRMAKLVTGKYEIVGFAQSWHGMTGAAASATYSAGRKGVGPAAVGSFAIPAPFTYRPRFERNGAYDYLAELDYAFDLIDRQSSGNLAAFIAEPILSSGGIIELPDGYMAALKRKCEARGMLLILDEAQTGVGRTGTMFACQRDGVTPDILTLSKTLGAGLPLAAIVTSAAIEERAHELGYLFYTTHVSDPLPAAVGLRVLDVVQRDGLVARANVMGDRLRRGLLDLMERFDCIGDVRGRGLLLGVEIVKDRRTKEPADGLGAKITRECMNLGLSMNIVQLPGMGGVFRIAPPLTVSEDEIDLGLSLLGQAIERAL
Assay [4] has as its system dialkylglycine decarboxylase gene (dgdA) expression controlled by the P. cepacia repressor, in E. coli JM109/pGEM7Z14. It is filed as cell-based, Escherichia coli. The settings on record: 20 mM amino acid in culture medium.
Protocol: Induction Stereochemistry--The induction phenomenon was further investigated by surveying the inducing ability of the separate isovaline stereoisomers and 15 other structurally similar amino acids (Table 3).
In some experiments 20 mM 2-methylalanine or other amino acid or 1 mg/mL IPTG was added to the growth medium. […] Protein concentrations were determined by dye binding (Read and Northcote, 1981).

In the case of `CCC(C)(N)C(=O)O` (racemic) [racemic isovaline, isovaline (2-ethylalanine)], in assay [1], the “induction of decarboxylase specific activity after amino acid addition (in words)” value (“induction … after amino acid addition (in words)” for short) is “immediate and rapid increase in decarboxylase specific activity”. Turning to `CC(C)(N)C(=O)O` [2-Methylalanine], in assay [2], the “effect on repressor binding to operators (gel shift, in words)” value was “releases O1, but not O2, binding”. In addition, the “induction … after amino acid addition (in words)” value in assay [1] was “immediate and rapid increase in decarboxylase specific activity”. For `C[C@H](N)C(=O)O` [L-Alanine], in assay [1], the “induction … after amino acid addition (in words)” value is “no decarboxylase production”. Turning to `CC[C@@](C)(N)C(=O)O` [R-Isovaline], in assay [3], the Km is 1 mM.

As to `NC1(C(=O)O)CCCC1` [1-Aminocyclopentane carboxylic acid], the “induction of decarboxylase (in words)” value in assay [4] was “induced an intermediate level”.

In the case of `CC[C@](C)(N)C(=O)O` [S-Isovaline], the Km in assay [3] was 25 mM.

Take `C[C@@H](N)C(=O)O` [D-Alanine]: the “induction … after amino acid addition (in words)” value in assay [1] is “no decarboxylase production”.
